From US20130196984A1, “3-AMINO-5-PHENYL-56-DIHYDRO-2H-[1,4]OXAZINES” (Siena Biotech S.p.A., priority 2009, published 2013)
Structures can show the parent of a compound that is named as a salt.

Columns and labels:
[1] = target: T1, BACE2 (Homo sapiens, UniProt Q9Y5Z0); assay: Assay A: binding studies using SPR based methods, immobilised BACE2; settings: CM5 chip, immobilised BACE2 enzyme ectodomain, acetate buffer pH 4.6, 4% DMSO
T1 construct: BACE2 enzyme ectodomain (derived from plasmid “pET17b-T7-hu proBACE2”); T7 (N); made in house
T1 sequence (Q9Y5Z0 63-473 limits assumed): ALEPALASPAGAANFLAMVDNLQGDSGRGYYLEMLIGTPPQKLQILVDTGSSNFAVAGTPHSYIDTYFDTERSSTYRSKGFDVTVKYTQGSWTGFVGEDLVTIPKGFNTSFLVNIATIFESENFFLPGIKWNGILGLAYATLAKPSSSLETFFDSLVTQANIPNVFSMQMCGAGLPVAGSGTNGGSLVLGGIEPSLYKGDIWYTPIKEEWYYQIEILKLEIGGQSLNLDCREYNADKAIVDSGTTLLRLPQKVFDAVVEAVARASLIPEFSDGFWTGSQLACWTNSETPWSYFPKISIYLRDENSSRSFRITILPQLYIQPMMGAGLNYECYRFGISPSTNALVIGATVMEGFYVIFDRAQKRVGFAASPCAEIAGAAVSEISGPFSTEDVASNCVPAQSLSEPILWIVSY

[2] = target: T2, BACE1 (Homo sapiens, UniProt P56817); assay: Assay A: binding studies using SPR based methods, immobilised BACE1; parameters: 6his-tagged full length BACE 1 expressed in SF9 cells; 6His; made in house; host or cells: SF9 insect cells; settings: CM5 chip, immobilised 6his-tagged full length BACE 1, acetate buffer pH 4.6, 4% DMSO;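 note: KD from a 1:1 kinetic fit (koff/kon) of real-time association and dissociation curves, or for fast binders from end-of-association equilibrium responses plotted against log concentration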
[3] = target: T2, BACE1; assay: Cellular Abeta-lowering assay; type: cell-based; parameters: endogenous in cells; host or cells: HEK293 stably transfected with human APP695 wt; settings: HEK293 cells stably transfected with human APP wt (APP695), Aβ40 ELISA of supernatant after 18-20 hrs

T2 sequence (P56817 46-501): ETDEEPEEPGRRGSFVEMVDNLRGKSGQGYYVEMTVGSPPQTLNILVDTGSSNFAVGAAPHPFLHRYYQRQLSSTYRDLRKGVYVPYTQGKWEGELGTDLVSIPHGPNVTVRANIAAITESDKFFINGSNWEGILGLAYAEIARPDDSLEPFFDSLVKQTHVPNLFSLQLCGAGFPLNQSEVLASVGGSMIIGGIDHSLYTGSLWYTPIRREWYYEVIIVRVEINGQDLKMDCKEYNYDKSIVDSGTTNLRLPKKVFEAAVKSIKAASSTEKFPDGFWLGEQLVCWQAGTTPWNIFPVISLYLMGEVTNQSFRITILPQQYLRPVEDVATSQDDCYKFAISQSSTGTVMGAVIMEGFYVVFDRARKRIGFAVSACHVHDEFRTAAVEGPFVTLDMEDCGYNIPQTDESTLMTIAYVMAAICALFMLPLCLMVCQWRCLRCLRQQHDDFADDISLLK

Kd [1] [µM] | Kd [2] [µM] | IC50 [3] [µM] | Structure (SMILES)
6 | 1.5 | – | CCC(C)c1cc(Cl)cnc1C(=O)Nc1ccc(F)c([C@]2(C)COCC(N)=N2)c1 (mixture of isomers) [Example 71, 3-((RS)-sec-butyl)-5-chloro-pyridine-2-carboxylic acid [3-((R)-5-amino-3-methyl-3,6-dihydro-2H-[1,4]oxazin-3-yl)-4-fluoro-phenyl]-amide hydrochloride]
6.9 | > 10 | – | C[C@@]1(c2cc(NC(=O)C(CC3CCCO3)C(F)(F)F)ccc2F)COCC(N)=N1 (mixture of isomers) [Example 85, (RS)—N-[3-((R)-5-amino-3-methyl-3,6-dihydro-2H-[1,4]oxazin-3-yl)-4-fluoro-phenyl]-3,3,3-trifluoro-2-[(RS)-1-(tetrahydro-furan-2-yl)methyl]-propionamide formate]
6.1 | > 10 | – | C[C@@]1(c2cc(NC(=O)C3CCOC3)ccc2F)COCC(N)=N1 (mixture of isomers) [Example 96, (RS)-tetrahydro-furan-3-carboxylic acid [3-((R)-5-amino-3-methyl-3,6-dihydro-2H-[1,4]oxazin-3-yl)-4-fluoro-phenyl]-amide formate]
0.58 | 1.68 | – | CC1(c2cccc(NC(=O)c3ccc(Cl)cc3F)c2)COCC(N)=N1 (racemic) [Example 3, (RS)—N-[3-(5-amino-3-methyl-3,6-dihydro-2H-[1,4]oxazin-3-yl)-phenyl]-4-chloro-2-fluoro-benzamide]
5.3 | 62.5 | – | CC1(c2cccc(NC(=O)c3cc(F)ccc3F)c2)COCC(N)=N1 (racemic) [Example 5, (RS)—N-[3-(5-amino-3-methyl-3,6-dihydro-2H-[1,4]oxazin-3-yl)-phenyl]-2,5-difluoro-benzamide]
0.361 | 3.3 | – | Cc1nc(C(=O)Nc2cccc(C3(C)COCC(N)=N3)c2)cs1 (racemic) [Example 10, (RS)-2-methyl-thiazole-4-carboxylic acid [3-(5-amino-3-methyl-3,6-dihydro-2H-[1,4]oxazin-3-yl)-phenyl]-amide]
0.044 | 0.49 | 0.041 | Cc1nc(C(=O)Nc2cccc(C3(C)COCC(N)=N3)c2)c(C)o1 (racemic) [Example 11, (RS)-2,5-dimethyl-oxazole-4-carboxylic acid [3-(5-amino-3-methyl-3,6-dihydro-2H-[1,4]oxazin-3-yl)-phenyl]-amide]
5.4 | 33 | – | CC1(c2cccc(NC(=O)c3ccn(CC(F)(F)F)n3)c2)COCC(N)=N1 (racemic) [Example 14, (RS)-1-(2,2,2-trifluoro-ethyl)-1H-pyrazole-3-carboxylic acid [3-(5-amino-3-methyl-3,6-dihydro-2H-[1,4]oxazin-3-yl)-phenyl]-amide]
6.7 | 20.1 | – | Cn1nc(C(=O)Nc2cccc(C3(C)COCC(N)=N3)c2)c2ccccc21 (racemic) [Example 15, (RS)-1-methyl-1H-indazole-3-carboxylic acid [3-(5-amino-3-methyl-3,6-dihydro-2H-[1,4]oxazin-3-yl)-phenyl]-amide]
0.513 | 1.41 | – | CC1(c2cccc(NC(=O)c3cc4ccccn4n3)c2)COCC(N)=N1 (racemic) [Example 16, (RS)-Pyrazolo[1,5-a]pyridine-2-carboxylic acid [3-(5-amino-3-methyl-3,6-dihydro-2H-[1,4]oxazin-3-yl)-phenyl]-amide]
10.8 | 0.309 | 0.16 | NC1=NC(c2cc(NC(=O)c3ccc(OCC(F)(F)F)cn3)ccc2F)(C2CC2)COC1 (racemic) [Example 23, (RS)-5-(2,2,2-Trifluoro-ethoxy)-pyridine-2-carboxylic acid [3-(5-amino-3-cyclopropyl-3,6-dihydro-2H-[1,4]oxazin-3-yl)-4-fluoro-phenyl]-amide]
5.75 | 1.88 | 0.12 | CC1(c2cccc(NC(=O)c3ccc(OCC(F)(F)F)cn3)c2)COCC(N)=N1 (racemic) [Example 24, (RS)-5-(2,2,2-Trifluoro-ethoxy)-pyridine-2-carboxylic acid [3-(5-amino-3-methyl-3,6-dihydro-2H-[1,4]oxazin-3-yl)-phenyl]-amide hydrochloride]
1.22 | 4.17 | 0.41 | CC1(c2cccc(NC(=O)c3cnccn3)c2)COCC(N)=N1 (racemic) [Example 25, (RS)-Pyrazine-2-carboxylic acid [3-(5-amino-3-methyl-3,6-dihydro-2H-[1,4]oxazin-3-yl)phenyl]-amide hydrochloride]
20 | 4.2 | 0.67 | CCCCc1ccc(C(=O)Nc2cccc(C3(C)COCC(N)=N3)c2)nc1 (racemic) [Example 32, 5-butyl-pyridine-2-carboxylic acid [3-((RS)-5-amino-3-methyl-3,6-dihydro-2H-[1,4]oxazin-3-yl)-phenyl]-amide hydrochloride]
– | – | 0.01 | CC1(c2cccc(NC(=O)c3ncc(Cl)cc3F)c2)COCC(N)=N1 (racemic) [Example 68, hydrochloride]
– | – | 0.009 | CC1(c2cccc(NC(=O)c3ccc(C#N)cn3)c2)COCC(N)=N1 (racemic) [Example 69, 5-cyano-pyridine-2-carboxylic acid [3-((RS)-5-amino-3-methyl-3,6-dihydro-2H-[1,4]oxazin-3-yl)-phenyl]-amide hydrochloride]
4.9 | 4 | – | CC1(c2cc(NC(=O)CC(F)(F)F)ccc2F)COCC(N)=N1 (racemic) [Example 79, (RS)—N-[3-(5-Amino-3-methyl-3,6-dihydro-2H-[1,4]oxazin-3-yl)-4-fluoro-phenyl]-3,3,3-trifluoro-propionamide]
– | – | 0.023 | C[C@@]1(c2cc(NC(=O)c3ccc(Cl)cn3)ccc2F)CO[C@H](c2ccccc2)C(N)=N1 [Example 30, 5-Chloro-pyridine-2-carboxylic acid [3-((3R,6R)-5-amino-3-methyl-6-phenyl-3,6-dihydro-2H-[1,4]oxazin-3-yl)-4-fluoro-phenyl]-amide]
– | – | 0.023 | C[C@@]1(c2cc(NC(=O)c3ccc(Cl)cn3)ccc2F)CO[C@@H](c2ccccc2)C(N)=N1 [Example 31, 5-Chloro-pyridine-2-carboxylic acid [3-((3R,6S)-5-amino-3-methyl-6-phenyl-3,6-dihydro-2H-[1,4]oxazin-3-yl)-4-fluoro-phenyl]-amide]
6.1 | > 10 | – | CC1(C)OCC(N)=N[C@]1(C)c1cc(NC(=O)C2CC2)ccc1F [Example 54, cyclopropanecarboxylic acid [3-((R)-5-amino-2,2,3-trimethyl-3,6-dihydro-2H-[1,4]oxazin-3-yl)-4-fluoro-phenyl]-amide]
3.6 | > 10 | – | C[C@@]1(c2cc(NC(=O)C3CC(Cl)C3)ccc2F)COCC(N)=N1 (stereo partly drawn) [Example 58, 3-chloro-cyclobutanecarboxylic acid [3-((R)-5-amino-3-methyl-3,6-dihydro-2H-[1,4]oxazin-3-yl)-4-fluoro-phenyl]-amide]
4 | 9.6 | – | C[C@@]1(c2cc(NC(=O)C3CC(F)(F)C3)ccc2F)COCC(N)=N1 [Example 59, 3,3-difluoro-cyclobutanecarboxylic acid [3-((R)-5-amino-3-methyl-3,6-dihydro-2H-[1,4]oxazin-3-yl)-4-fluoro-phenyl]-amide]
0.015 | 0.011 | – | C[C@@]1(c2cc(NC(=O)c3ncc(C#N)cc3Cl)ccc2F)COCC(N)=N1 [Example 67, 3-Chloro-5-cyano-pyridine-2-carboxylic acid [3-((R)-5-amino-3-methyl-3,6-dihydro-2H-[1,4]oxazin-3-yl)-4-fluoro-phenyl]-amide hydrochloride]
0.045 | 1.1 | – | CCc1cc(Cl)cnc1C(=O)Nc1ccc(F)c([C@]2(C)COCC(N)=N2)c1 [Example 70, 5-chloro-3-ethyl-pyridine-2-carboxylic acid [3-((R)-5-amino-3-methyl-3,6-dihydro-2H-[1,4]oxazin-3-yl)-4-fluoro-phenyl]-amide hydrochloride]
3.6 | > 10 | – | COCC1(C(=O)Nc2ccc(F)c([C@]3(C)COCC(N)=N3)c2)CC1 [Example 86, 1-methoxymethyl-cyclopropanecarboxylic acid [3-((R)-5-amino-3-methyl-3,6-dihydro-2H-[1,4]oxazin-3-yl)-4-fluoro-phenyl]-amide formate]
3.6 | > 10 | – | CC(C)CC(=O)Nc1ccc(F)c([C@]2(C)COCC(N)=N2)c1 [Example 95, N-[3-((R)-5-amino-3-methyl-3,6-dihydro-2H-[1,4]oxazin-3-yl)-4-fluoro-phenyl]-3-methyl-butyramide formate]
1.76 | > 10 | – | C[C@@]1(c2cc(NC=O)ccc2F)COCC(N)=N1 [Example 97, N-[3-((R)-5-Amino-3-methyl-3,6-dihydro-2H-[1,4]oxazin-3-yl)-4-fluoro-phenyl]-formamide formate]
